# Data published in patent publication US7452865B2, “Antagonistic analogs of GH RH (2003)” (The Administrare's of the Tulane Educational Fund, priority 2004, dated 2008).
# Marks after values point to notes of the source that are not given here. Square brackets hold non-standard residues; d marks the D form. Peptide text beside a SMILES is read from it. * marks the point of attachment. Phe(4-Cl) = N[C@@H](Cc1ccc(Cl)cc1)C(=O)O; hArg = N=C(N)NCCCC[C@H](N)C(=O)O; Nle = CCCC[C@H](N)C(=O)O; Abu = CC[C@H](N)C(=O)O; PhAc = O=C(Cc1ccccc1)*
# Columns and labels:
# [1] = tested on: IGF-II; experiment: PC-3 xenografts, Experiment 1: tumor IGF-II (RIA); type: in vivo, nude mice; conditions: 10 μg/day s.c., 28 days
# Source text: (§1) For the measurement of GH and IGF-I levels in the serum, as well as IGF-I and IGF-II concentrations in the cytosol fraction of tumors, blood samples and tumor samples were collected and processed as described (Braczkowski R, Schally A V, Plonowski A, Varga J L, Groot K, Krupa M, Armatis P, Cancer 95: 1735-1745, 2002), hereby incorporated by reference. Briefly, blood samples are centrifuged to separate the serum, tumors are homogenized and centrifuged to separate the cytosol fraction. Serum GH is then measured by the double-antibody RIA method. Before measurement by RIA, IGF-I and IGF-II are extracted from serum and cytosol fractions using an acid-ethanol cryoprecipitation method that eliminates most of the IGF binding proteins, which can interfere with the RIA. IGF-I concentration is measured by RIA using IGF-I as a standard and goat anti-IGF-I antibody (both from DSL Inc., Webster, Tex.). IGF-II concentration is measured by RIA using human recombinant IGF-II (Bachem) as a standard and anti-IGF-II monoclonal antibody (Amano International Enzyme, Troy, Va.).
# (§2) Male nude mice were implanted s.c. with 3 mm^3 pieces of PC-3 human hormone-independent prostate cancer tissue on both flanks. When tumors reached a volume of approx. 50 mm^3, the mice were divided into 5 experimental groups with 7 to 8 animals in each group and received single daily injections for 28 days as follows: 1. Control (vehicle solution); 2. JV-1-38 (10 μg/day s.c.); 3 Peptide 31 (10 μg/day s.c.); 4. Peptide 67 (10 μg/day s.c.); 5. Peptide 62 (10 μg/day s.c.). Tumor volumes were measured twice a week. The experiment was ended on day 29 by sacrificing the mice under Isoflurane anesthesia. Resulting tumors were cleaned, weighed, and snap-frozen until further analyses. Trunk blood was collected from the abdominal aorta and serum was separated for RIA measurement of IGF-I. Statistical analyses of the measurement results were done by two-tailed t-test; data are presented as the means±S.E.
# [2] = tested on: IGF-I; experiment: PC-3 xenografts, Experiment 1: serum IGF-I (RIA); type: in vivo, nude mice; conditions: 10 μg/day s.c., 28 days
# Source text: as §1, §2
# [3] = tested on: hGH-RH(1-29)NH2 induced GH release; experiment: Inhibition of GH release in superfused rat pituitary system; type: cell-based; conditions: antagonist 30 nM
# Method in brief: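 Dispersed rat pituitary cells in superfusion were preincubated 9 min with analog at various concentrations, then stimulated with 1 nM hGH-RH(1-29)NH2 for 3 min, repeated at 30, 60, 90, 120 min to gauge duration. GH measured by double-antibody RIA; net integrated responses expressed as percent of the initial 1 nM GH-RH response.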
# [4] = tested on: PC-3 human prostate cancer xenografts; experiment: PC-3 xenografts in nude mice, Experiment 1: tumor growth; type: in vivo
# Procedure: as §2
# [5] = tested on: PC-3 human prostate cancer xenografts; experiment: PC-3 xenografts in nude mice, Experiment 3: tumor growth; type: in vivo
# Procedure: (§3) Male nude mice were implanted s.c. with 3 mm^3 pieces of PC-3 human hormone-independent prostate cancer tissue on both flanks. When tumors reached a volume of approximately 65 mm^3, the mice were divided into 7 experimental groups with 8 to 9 animals in each group and received single daily injections for 28 days as follows: 1. Control (vehicle solution); 2. JV-1-38 (10 μg/day s.c.); 3. Peptide 35 (10 μg/day s.c.); 4. Peptide 36 (10 μg/day s.c.); 5. Peptide 37 (10 μd/day s.c.); 6. Peptide 39 (10 μg/day s.c.); 7. Peptide 41 (10 μg/day s.c.). Tumor volumes were measured twice a week. The experiment was ended on day 28 by sacrificing the mice under Isofurane anesthesia. Resulting tumors were cleaned, weighed, and snapfrozen until further analyses. Trunk blood was collected from the abdominal aorta and serum was separated for RIA measurement of IGF-I. Statistical analyses of the measurement results were done by ANOVA followed by Fisher test; data are presented as the means±S.E.
# [6] = tested on: PC-3 human prostate cancer xenografts; experiment: PC-3 xenografts in nude mice, Experiment 2: tumor growth; type: in vivo; conditions: for Tumor volume (mm^3) Initial: at start of treatment
# Procedure: as §2
# (§4) Experiment 2 was similar to Experiment 1, with the difference that Experiment 2 was started when PC-3 tumors had grown to approximately 30 mm^3 in volume. At this time, the animals were divided into 8 experimental groups with 8 animals in each group, and received single daily injections for 28 days as follows. 1. Control (vehicle solution); 2. JV-1-38 (10 μg/day s.c.); 3. Peptide 46 (5 μg/day: s.c.); 4. Peptide 77 (5 μg/day s.c); 5. Peptide 76 (5 μg/day s.c.); 6. Peptide 70 (5 μg/day s.c.); 7 Peptide 79 (5 μg/day s.c.); 8. Peptide 80 (5 μg/day s.c.). Further details of Experiment 2 are the same as for Experiment 1.
# [7] = tested on: IGF-I; experiment: PC-3 xenografts, Experiment 2: serum IGF-I (RIA); type: in vivo, nude mice; conditions: 28 days
# Source text: as §1, §2, §4
# [8] = tested on: IGF-I; experiment: PC-3 xenografts, Experiment 4: serum IGF-I (RIA); type: in vivo, nude mice; conditions: 5 μg/day s.c., 28 days
# Source text: as §1, §3
# (§5) All experimental details of Experiment 4 are the same as for Experiment 3, with the following difference. When tumors reached a volume of approximately 55 mm^3, the mice were divided into 5 experimental groups with 8 to 9 animals in each group and received single daily injections for 28 days as follows: 1. Control (vehicle solution); 2. Peptide 80 (5 μg/day s.c.); 3. Peptide 86 (5 μg/day s.c.); 4. Peptide 95 (5 μg/day s.c.); 5. Peptide 96 (5 μg/day s.c.). Further details of Experiment 4 are the same as for Experiment 3.
# [9] = tested on: GH-RH receptor isoforms on membrane fractions of human PC-3 prostate tumors; type: binding; conditions: general statement
# Method in brief: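 Competitive displacement of [^125I]JV-1-42 from crude membranes of human PC-3 prostate tumours grown as nude-mouse xenografts, with unlabelled peptides at 10^−12 to 10^−6 M. Bound radioactivity in the centrifuged pellet gamma-counted; Ki from Munson–Rodbard analysis. Relative affinity = Ki of reference peptide (JV-1-36 or JV-1-38) / Ki of test antagonist.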
# [10] = tested on: PC-3 human prostate cancer xenografts; experiment: PC-3 xenografts in nude mice, Experiment 4: tumor growth; type: in vivo
# Procedure: as §3, §5
# [11] = 10 μg/day s.c., 28 days, vs control
# [12] = 5 μg/day s.c., 28 days, vs control
compound,measurement,setting,value
"CCCC[C@H](NC(=O)[C@@H](NC(=O)[C@H](CC(=O)O)NC(=O)[C@H](CCC(N)=O)NC(=O)[C@H](CC(C)C)NC(=O)[C@H](CC(C)C)NC(=O)[C@H](CCCCN)NC(=O)[C@H](CCCNC(=N)N)NC(=O)[C@H](C)NC(=O)[C@H](CO)NC(=O)[C@H](CC(C)C)NC(=O)[C@H](CCC(N)=O)NC(=O)[C@H](CC)NC(=O)[C@H](CC(C)C)NC(=O)[C@@H](NC(=O)[C@H](CCCCN)NC(=O)[C@H](CCCNC(=N)N)NC(=O)[C@H](Cc1ccc(OC)cc1)NC(=O)[C@H](CCCCNC(=N)N)NC(=O)[C@H](CC(N)=O)NC(=O)[C@@H](NC(=O)[C@H](Cc1ccc(Cl)cc1)NC(=O)[C@@H](NC(=O)[C@H](C)NC(=O)[C@H](CC(=O)O)NC(=O)[C@@H](CCCNC(=N)N)NC(=O)[C@H](Cc1ccc(O)cc1)NC(=O)Cc1ccccc1)[C@@H](C)CC)[C@@H](C)O)C(C)C)[C@@H](C)CC)C(=O)N[C@H](CCCNC(=N)N)C(=O)N[C@@H](CCCCNC(=N)N)C(N)=O [JV-1-38, reference compound] (PhAc-Y[dR]DAI[Phe(4-Cl)]TN[hArg]Y(Me)RKVL[Abu]QLSARKLLQDI[Nle][dR][hArg]-NH2; N-terminus and C-terminus assumed)",Tumor IGF-II (pg/mg protein),[1],208 ± 43.3 pg/mg protein
same,Tumor IGF-II (% inhibition),[1]; vs control,(5%)
same,Serum IGF-I,[2],147 ± 8.49 ng/mL
same,Serum IGF-I (% inhibition),[2]; vs control,(1%)
same,GH response (% of control) 0 min,[3]; 1 nM hGH-RH(1-29)NH2 at 0 min,59 % of control
same,GH response (% of control) 30 min,[3]; 1 nM hGH-RH(1-29)NH2 at 30 min,32 % of control
same,GH response (% of control) 60 min,[3]; 1 nM hGH-RH(1-29)NH2 at 60 min,28 % of control
same,GH response (% of control) 90 min,[3]; 1 nM hGH-RH(1-29)NH2 at 90 min,34 % of control
same,GH response (% of control) 120 min,[3]; 1 nM hGH-RH(1-29)NH2 at 120 min,31 % of control
same,Tumor volume (mm^3) Final,"[4]; 10 μg/day s.c., 28 days",291 ± 80.4 mm^3
same,Tumor volume doubling time,"[4]; 10 μg/day s.c., 28 days",12.3 ± 1.04 days
same,Tumor weight,"[4]; 10 μg/day s.c., 28 days",239 ± 58.0 mg
same,Tumor volume Final (% inhibition),[4]; [11],(42%)
same,Tumor weight (% inhibition),[4]; [11],(37%)
same,Tumor volume (mm^3) Initial,[4]; at start of treatment,49.2 ± 8.37 mm^3
same,Tumor volume (mm^3) Final,"[5]; 10 μg/day s.c., 28 days",276 ± 48.7** mm^3
same,Tumor volume doubling time,"[5]; 10 μg/day s.c., 28 days",18.2 ± 1.84 days
same,Tumor weight,"[5]; 10 μg/day s.c., 28 days",386 ± 62.9 mg
same,Tumor volume Final (% inhibition),[5]; [11],(66%)
same,Tumor weight (% inhibition),[5]; [11],(45%)
same,Tumor volume (mm^3) Initial,[5]; at start of treatment,68.3 ± 8.08 mm^3
same,Tumor volume (mm^3) Initial,[6]; 10 μg/day group,29.3 ± 3.8 mm^3
same,Tumor volume (mm^3) Final,"[6]; 10 μg/day s.c., 28 days",351 ± 72.9 mm^3
same,Tumor volume doubling time,"[6]; 10 μg/day s.c., 28 days",8.7 ± 0.7 days
same,Tumor weight,"[6]; 10 μg/day s.c., 28 days",254 ± 52.0 mg
same,Tumor volume Final (% inhibition),[6]; [11],(0%)
same,Serum IGF-I,[7]; 10 μg/day s.c.,293 ± 28.0 ng/mL
"[CH3(CH2)6CO-Tyr^1, D-Arg^2, Phe(pCl)^6, Ala^8, His^9, Tyr(Et)^10, His^11, Abu^15, Nle^27, D-Arg^28, Har^29]hGH-RH(1-29)NH2 [Peptide 80]",Serum IGF-I,[8],136 ± 15.3 ng/mL
same,Serum IGF-I (% inhibition),[8]; vs control,18%
same,binding affinities to the tumoral receptors for GH-RH (in words),[9],extremely high binding affinities
same,Tumor volume (mm^3) Final,"[10]; 5 μg/day s.c., 28 days",398 ± 68.7* mm^3
same,Tumor volume doubling time,"[10]; 5 μg/day s.c., 28 days",10.7 ± 1.28 days
same,Tumor weight,"[10]; 5 μg/day s.c., 28 days",752 ± 150 mg
same,Tumor volume Final (% inhibition),[10]; [12],68%
same,Tumor weight (% inhibition),[10]; [12],48%
same,Tumor volume (mm^3) Initial,[10]; at start of treatment,53.2 ± 10.1 mm^3
same,Tumor volume (mm^3) Initial,[6]; 5 μg/day groups,24.8 ± 2.2 mm^3
same,Tumor volume (mm^3) Final,"[6]; 5 μg/day s.c., 28 days",128 ± 38.9*# mm^3
same,Tumor volume doubling time,"[6]; 5 μg/day s.c., 28 days",16.7 ± 4.3 days
same,Tumor weight,"[6]; 5 μg/day s.c., 28 days",137 ± 46.1 mg
same,Tumor volume Final (% inhibition),[6]; [12],(64%)
same,Tumor weight (% inhibition),[6]; [12],(52%)
same,Serum IGF-I,[7]; 5 μg/day s.c.,152 ± 7.83 ng/mL
same,Serum IGF-I (% inhibition),"[7]; 5 μg/day s.c., vs control",42%
